Literature values, collected in US4018912A, “Tripeptide derivatives with central nervous system activity and preparation thereof” (Ayerst McKenna and Harrison Ltd., priority 1975, dated 1977).
Read-outs that look alike come from different tables or passages of the source.

Assays:
[1] = system: effects of L-DOPA; conditions: literature (Plotnikoff et al. 1971; Friedman et al. 1973)
[2] = prior art; due to rapid inactivation in the mammalian body
[3] = system: effects of oxotremorine; conditions: literature (Plotnikoff et al. 1972)
[4] = system: sedative effects of deserpidine; conditions: mice; literature (Plotnikoff et al. 1973)
[5] = system: sedative effects of deserpidine; conditions: monkeys; literature (Plotnikoff et al. 1973)
[6] = in vivo

## H-L-prolyl-L-leucyl-glycinamide [H--Pro--Leu--Gly--NH2]
[1]
  potentiation of the behavioral effects of L-DOPA: potentiates the behavioral effects of (3,4-dihydroxyphenyl)-L-alanine (L-DOPA)
[2]
  duration of action: short duration of action
[3]
  antagonism of the effects of oxotremorine: antagonizes the effects of oxotremorine
[4]
  reversal of the sedative effects of deserpidine: reverses the sedative effects of deserpidine
[5]
  reversal of the sedative effects of deserpidine: reverses the sedative effects of deserpidine
[6]
  first step in the inactivation: proteolytic cleavage of the Pro-Leu bond with formation of proline and leucyl-glycinamide
